Experimental data taken from patent US5945450A, “Naphthalene derivative” (Teijin Limited, priority 1994, dated 1999).
Like-named read-outs stand apart in the source and are kept apart here.

How the values were obtained:
[1] = tested on: human IgG antibodies; experiment: In vitro inhibition of human IgG antibody production (lymphocytes + IL-4 + anti CD40Ab + IL-10, ELISA); assay type: cell-based; details: Lymphocyte
Procedure: (§1) According to the method described in J. Immunol., 146:1836-1842, 1991 and J. Immunol., 147:8-13, 1991, the concentrations of IgE and IgG antibodies were measured by the procedures described below.
(§2) Peripheral venous blood was sampled from the healthy person, and submitted to density-gradient centrifugation to isolate lymphocytes. The lymphocytes thus obtained were washed and suspended in a culture medium (RPMI-1640 (provided by Gibco)+10% heat-inactivated FCS (Whittaker)+100 µg/ml streptomycin+100 U/ml penicillin+2mM L-glutamine). The cell suspensions were cultured for 1 week in the presence/absence of the compounds of this invention at the concentrations as described in Tables 3-1 to 3-2 together with human interleukin 4 (IL-4, Genzyme)([…]), anti CD40 antibodies (anti CD40Ab, Biosource, clone B-B20)([…]) and human interleukin 10 (IL-10, Genzyme)([…]). The culture medium was supplied freshly to the cell suspension, and the mixture was further cultured for another week. The supernatant was sampled and the concentrations of IgE and IgG antibodies therein were measured by sandwich ELISA.
(§3) The ELISA was based, for the assay of IgE antibodies, on the use of rabbit anti-human IgE() antibodies (ICN) as the primary antibody and biotin-linked anti-human IgE monoclonal antibodies (G7-26, PharMingen) as the secondary antibody. For the assay of IgG antibodies, anti-human IgG monoclonal antibodies (G18-145, PharMingen) and biotin-linked donkey anti-human IgG antibodies (H+L)(Jackson) were used for the primary and secondary antibodies, respectively. For the assay of both IgE and IgG antibodies, Avidin-Biotin-Horse Radish Peroxidase (ABC kit, Vector Lab) and TMB (3,3',5,5'-tetramethylbenzidine) microwell peroxidase substrate system (Kirkegaard & Perry Laboratories Inc.) were used as the enzyme and the substrate, respectively. The assays were made by the use of conventionally known ELISA.
(§4) The inhibitory effect (%) of a given compound of this invention on the production of the antibody was calculated with respect to the concentration of the same antibody when the compound was not coexistent (refer to Uejima et al., American Academy of Allergy and Immunology, Proceedings of 1995 Annual Meeting, Program No. 818).

[2] = tested on: TF (tissue factor); experiment: Inhibitory effects on the TF production in LPS-stimulated human peripheral blood monocytes; assay type: cell-based; details: Monocyte, LPS 1 μg/ml, 16 hours
Procedure: Peripheral venous blood was sampled from the healthy person, and submitted to density-gradient centrifugation so that monocytes might be isolated. The monocytes thus obtained were washed with minimum essential medium (MEM, Gibco) and suspended in a culture medium (RPMI-1640(Gibco)+25 mM HEPES buffer+100 μg/ml streptomycin+100 U/ml penicillin G+2 mM L-glutamine) to give a suspension with a density of 1×10^6 cells/ml. A 0.15 ml of the cell suspension was placed onto each of the wells of a 96-well microplate, to which the compound of this invention as described in Tables 4-1 to 4-2 was added (0.05 ml of the culture medium), and the assembly was placed for 1 hour in a CO2 incubator for cultivation. Then, LPS (lipopolysaccarides, E. coli 0111B4, Difco) 1 μg/ml was added thereto, and the assembly was further cultured for 16 hours. After the supernatant being removed, the residue was washed with physiological saline, 0.1 ml of 16 mM OG (n-octyl-β-D-glucopyranoside) was added thereto, and the assembly was stirred to make TF soluble. A 0.2 ml of physiological saline was added to each residue (final dilution was […]) and this preparation was used for determination of the coagulation stimulating activity (TF-like activity). The test compound had been dissolved in DMSO to give a 0.1 M solution which was diluted with the culture medium prior to use. The final concentration of DMSO was 0.01% or less.
To each well of the microplate, 50 μl of human plasma and 50 μl of the test sample prepared as above for determination of the coagulation stimulating activity, or 50 μl of standard thromboplastin (human thromboplastin, Thromborel S, Behringwerke) were added. The microplate was incubated at 37° C. for 5 minutes, to which was added 25 mM CaCl2 (50 μl/well) containing phosphorous lipids (Platelin, Organon Teknica) at a concentration of […] to initiate coagulation. Coagulation was determined on the basis of absorption at 540 nm, and the measurement lasted 7 to 20 minutes. The data were analyzed with a data analyzing software SOFTMax (Molecular Devices) and the maximum rate time was taken as the coagulation time. The logarithmic values of the coagulation times and standard thromboplastin concentrations are plotted, and a regression parabola was drawn among the dots to give a test curve. From the curve, the inhibitory effect (%) of a given test compound on TF production was calculated. (Refer to J. Imnmunol. Methods, 133:21-29, 1990, and Proc. Natl. Acad. Sci. USA, 89:10370-10374, 1992).

[3] = tested on: human IgE antibodies; experiment: In vitro inhibition of the production of human IgE antibodies (lymphocytes + IL-4 + anti CD40Ab + IL-10, ELISA); assay type: cell-based; details: Lymphocyte, read-out: Inhibition of antibody production (%) IgE
Procedure: as §1, §2, §3, §4

[4] = tested on: mast cells of the rat; experiment: Inhibition of histamine release from rat mast cells; assay type: cell-based, rat (SD strain); details: Mast cell, read-out: Inhibiton of histamine release (%)
Procedure: A 1 ml of anti-DNP-Ascaris (Didets) anti-serum (prepared as described in J. Immunol., 106:1002, 1971) was injected into the peritoneal cavity of 5 SD strain rats of 7 weeks old. Forty eight hours later, the animals were bled to death, and 20 ml of HBSS (Hanks balanced salt solution) was injected into their peritoneal cavity. After about 90 second massaging, the HBSS washing was recovered, and cells released into the peritoneal cavity were collected from the washing. The ascitic cells thus collected were washed once with 0.1% BSA/Tyrode-HEPES, and then resuspended in 0.1% BSA/Tyrode-HEPES to give a suspension with a density of 5×10^6 cells/ml. The cell suspension was incubated at 37° C. for 10 minutes in the presence/absence of a test substance, that is, the compound listed in Table 6.
To the resulting mixture was added a histamine releasing agent (20 μg/ml of DNP-Ascaris (DNP-As) (Didets)+25 μg/ml of phosphatidylserine (PS) or 0.2 μg/ml of calcium ionophore A23187), and the reaction was allowed to proceed at 37° C. for 20 minutes. Then, the cell suspension was centrifuged to obtain supernatant. Histamine released in the supernatant was determined by the fluorescent method (J. Pharmacol. Exp. Ther. 127:182, 1959). Inhibitory effect (%) of a given compound of this invention on histamine release was calculated relative to the histamine release when the compound was not coexistent.

[5] = releasing agent DNP-As + PS, 10 μM
[6] = releasing agent DNP-As + PS, 100 μM
[7] = releasing agent calcium ionophore A23187, 10 μM
[8] = releasing agent calcium ionophore A23187, 100 μM

| SMILES | inhibition at 1 µM [1] | inhibition at 3 µM [1] | inhibition at 10 µM [1] | inhibition at 3 µM [2] | inhibition at 1 µM [3] | inhibition at 3 µM [3] | inhibition at 10 µM [3] | inhibition at 10 µM [4, 5] | inhibition at 100 µM [4, 6] | inhibition at 10 µM [4, 7] | inhibition at 100 µM [4, 8] | inhibition at 1 µM ([2]; 1 μM) | inhibition at 10 µM ([2]; 10 μM) |
| --- | --- | --- | --- | --- | --- | --- | --- | --- | --- | --- | --- | --- | --- |
| O=C(Cc1ccc(Oc2ccc3ccccc3c2)cc1)Nc1ccccc1C(=O)O [Compound No. 1126, 2-(4-(2-naphtyloxy)phenylacetamide)benzoic acid] | -5% | 35.4% | 84% | 26.5% | 63.9% | 93.5% | 97.9% | 25.4% | 90.2% | 54.2% | 79.8% | – | – |
| O=C(Nc1ccccc1C(=O)O)c1ccc(Oc2ccc3ccccc3c2)cc1 [Compound No. 1104, 2-(4-(2-naphtyloxy)benzamide)benzoic Acid] | -4.7% | -6.2% | 20.5% | 90.4% | 35.9% | 85.6% | 98.2% | 42.7% | 84.2% | 75.4% | 78% | 45.3% | 100% |
